Each structure is given as a SMILES string. Structures can show the parent of a compound that is named as a salt. Where only a bound is given, the exact number is not on record here.

This is an account of results in patent publication US20120213758A1, “BIARYL PDE4 INHIBITORS FOR TREATING PULMONARY AND CARDIOVASCULAR DISORDERS” (DeCODE Genetics enf, priority 2007, published 2012).

Experiment [1] deals with hPDE4D (Homo sapiens, UniProt Q08499). Put plainly: In-vitro real-time enzyme-coupled spectrophotometric assay for PDE4 enzymes (hPDE4D).
For experiment [2], the target named is hPDE4B (Homo sapiens, UniProt Q07343). The experiment is described as follows: In-vitro real-time enzyme-coupled spectrophotometric assay for PDE4 enzymes (hPDE4B).
Experiment [3] deals with experimentally-induced interstitial cystitis. Conditions: rats; frequency of urination decreased, urine volume per urination increased; cited from earlier work.
Experiment [4] concerns patients suffering from asthma and COPD. The conditions noted are these: effect of cilomilast disappeared on long-term trial; cited from earlier work.

hPDE4D, sequence (Q08499 whole entry): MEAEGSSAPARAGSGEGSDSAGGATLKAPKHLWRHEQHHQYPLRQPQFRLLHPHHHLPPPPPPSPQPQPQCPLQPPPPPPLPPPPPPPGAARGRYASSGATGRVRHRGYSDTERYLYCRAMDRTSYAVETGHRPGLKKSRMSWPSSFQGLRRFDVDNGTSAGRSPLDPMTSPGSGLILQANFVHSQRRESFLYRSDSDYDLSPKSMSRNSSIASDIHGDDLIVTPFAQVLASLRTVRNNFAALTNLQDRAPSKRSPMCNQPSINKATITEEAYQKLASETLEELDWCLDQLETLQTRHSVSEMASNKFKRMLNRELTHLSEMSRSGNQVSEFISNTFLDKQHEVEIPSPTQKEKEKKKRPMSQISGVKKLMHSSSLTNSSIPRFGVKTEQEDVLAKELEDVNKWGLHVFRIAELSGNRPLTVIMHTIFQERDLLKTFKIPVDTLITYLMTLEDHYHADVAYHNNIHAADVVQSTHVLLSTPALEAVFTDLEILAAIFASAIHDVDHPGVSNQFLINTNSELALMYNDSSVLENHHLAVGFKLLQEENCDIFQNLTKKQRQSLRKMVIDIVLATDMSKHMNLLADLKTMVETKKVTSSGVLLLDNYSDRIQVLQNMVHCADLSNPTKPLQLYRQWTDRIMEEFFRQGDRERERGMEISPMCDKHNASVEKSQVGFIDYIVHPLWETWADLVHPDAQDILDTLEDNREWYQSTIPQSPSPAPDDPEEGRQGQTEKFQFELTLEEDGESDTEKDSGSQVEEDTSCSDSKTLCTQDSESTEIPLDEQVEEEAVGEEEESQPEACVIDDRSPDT
hPDE4B, sequence (Q07343 whole entry): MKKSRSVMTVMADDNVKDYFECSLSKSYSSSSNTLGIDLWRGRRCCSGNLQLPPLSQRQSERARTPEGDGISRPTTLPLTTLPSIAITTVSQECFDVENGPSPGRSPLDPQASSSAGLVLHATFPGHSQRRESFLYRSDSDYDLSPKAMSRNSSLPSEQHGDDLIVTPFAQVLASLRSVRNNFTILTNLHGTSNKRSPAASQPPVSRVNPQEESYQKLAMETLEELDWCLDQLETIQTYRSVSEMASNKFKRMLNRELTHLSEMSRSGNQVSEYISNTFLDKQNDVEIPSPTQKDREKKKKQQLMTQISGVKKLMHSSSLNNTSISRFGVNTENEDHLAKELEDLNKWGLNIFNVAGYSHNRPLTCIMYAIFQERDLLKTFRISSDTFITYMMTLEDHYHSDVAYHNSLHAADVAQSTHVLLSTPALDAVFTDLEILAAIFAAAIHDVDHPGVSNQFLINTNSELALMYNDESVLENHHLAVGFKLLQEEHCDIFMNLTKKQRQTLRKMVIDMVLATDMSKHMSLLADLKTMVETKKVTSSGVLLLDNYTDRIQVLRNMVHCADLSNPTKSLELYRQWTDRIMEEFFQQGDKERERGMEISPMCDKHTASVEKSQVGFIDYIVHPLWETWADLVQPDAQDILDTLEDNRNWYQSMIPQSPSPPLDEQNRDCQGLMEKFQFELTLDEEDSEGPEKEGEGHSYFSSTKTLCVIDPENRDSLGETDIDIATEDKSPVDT

The IC50 is the point on the concentration scale where inhibition reaches its midpoint. In the case of `COC(=O)c1ccc(Cc2ccc(OC)c(-c3cccc(Cl)c3)c2)cn1` [Example A-073, 5-(3′-chloro-6-methoxy-biphenyl-3-ylmethyl)-pyridine-2-carboxylic methyl ester], the 50% inhibitory concentration (IC50) in experiment [1] and in experiment [2] was less than 5 µM in each case. With `COc1ccc(Cc2ccc(N(C)CC(=O)O)nc2)c(F)c1-c1cccc(Cl)c1` [Example A-074, {[5-(3′-chloro-2-fluoro-6-methoxy-biphenyl-3-ylmethyl)-pyridin-2-yl]-methyl-amino}-acetic acid], the IC50 in experiment [1] and in experiment [2] was less than 5 µM each time. In the case of `COC(=O)c1ccc(Cc2ccc(OC(F)F)c(-c3cccc(Cl)c3)c2)cn1` [Example A-075, 5-(3′-Chloro-6-difluoromethoxy-biphenyl-3-ylmethyl)-pyridine-2-carboxylic acid methyl ester], the IC50 in experiment [1] and in experiment [2] was less than 5 µM each time. Take `FC(F)Oc1ccc(Cc2ccc(-c3nnn[nH]3)nc2)cc1-c1cccc(Cl)c1` [Example A-076, 5-(3′-Chloro-6-difluoromethoxy-biphenyl-3-ylmethyl)-2-(1H-tetrazol-5-yl)-pyridine hydrochloride salt]: the IC50 in experiment [1] and in experiment [2] was less than 5 µM throughout. Consider `COc1ccc(Cc2ccc(F)cc2)[n+]([O-])c1-c1cccc([N+](=O)[O-])c1` [Example B-080, 6-(4-Fluoro-benzyl)-3-methoxy-2-(3-nitro-phenyl)-pyridine 1-oxide], for which the half-maximal inhibitory concentration (IC50) in experiment [1] and in experiment [2] was less than 5 µM each time.

Regarding `CCNC(=O)Nc1ccc(Cc2ccc(OC)c(-c3cccc(Cl)c3)c2F)c[n+]1O` [Example B-081, 1-[5-(3′-Chloro-2-fluoro-6-methoxy-biphenyl-3-ylmethyl)-1-oxy-pyridin-2-yl]-3-ethyl-urea], the 50% inhibitory concentration (IC50) in experiment [1] and in experiment [2] was less than 5 µM each time.

As to `CCNC(=O)NCc1ccc(Cc2ccc(OC)c(-c3cccc(Cl)c3)c2F)c[n+]1[O-]` [Example B-082, 1-[5-(3′-Chloro-2-fluoro-6-methoxy-biphenyl-3-ylmethyl)-1-oxy-pyridin-2-ylmethyl]-3-ethyl-urea], the 50% inhibitory concentration (IC50) in experiment [1] and in experiment [2] was less than 5 µM in each case. Take `COc1ccc(Cc2ccc(CN3CCNC3=O)[n+]([O-])c2)c(F)c1-c1cccc(Cl)c1` [Example B-083, 1-[5-(3′-Chloro-2-fluoro-6-methoxy-biphenyl-3-ylmethyl)-1-oxy-pyridin-2-ylmethyl]-imidazolidin-2-one]: the IC50 in experiment [1] and in experiment [2] was less than 5 µM throughout. With `CCc1ccc2c(-c3cccc(Cl)c3)nc(=O)n(CC)c2n1` [YM976], the “effect on experimentally-induced interstitial cystitis” value in experiment [3] is reported as “ameliorate the effects of experimentally-induced interstitial cystitis in rats”.

Consider `COc1ccc([C@]2(C#N)CC[C@@H](C(=O)O)CC2)cc1OC1CCCC1` [cilomilast], for which the “clinical effect in asthma and COPD” value in experiment [4] is given as “showed initially excellent results”. For the compound `O=C(Nc1c(Cl)cncc1Cl)c1ccc(OC(F)F)c(OCC2CC2)c1` [roflumilast], the “clinical effect in asthma and COPD” value in experiment [4] is recorded as “showed initially excellent results”.
